Source: patent US20250025443A1, “COMPOUNDS AND METHODS FOR TREATING CORONA VIRUSES” (CLEAR CREEK BIO, INC., priority 2021, published 2025)
Where two headings read alike, the source gives them in different places.

Molecular target: SARS-CoV-2 Papain-Like Protease (PLpro) (Severe acute respiratory syndrome coronavirus 2 (2019-nCoV) (SARS-CoV-2), UniProt P0DTD1)
Experiment: biochemical
Conditions: read-out: PLpro IC50
[1] = SARS-CoV-2 PLpro enzymatic fluorescence assay
[2] = PLpro enzymatic fluorescence assay, class symbols

SMILES	IC50 [1]	also measured
Cc1ccc(OCCN(C)C)cc1C(=O)NC1(c2cncc3ccccc23)CC1 [Compound 409, 5-(2-(Dimethylamino)ethoxy)-N-(1-(isoquinolin-4-yl)cyclopropyl)-2-methylbenzamide]	< 100 nM	–
C[C@H](c1cccc2ccccc12)N1C[C@@H]2[C@H](C1)[C@H]2C(=O)NCc1cccc(F)c1 [Compound 149]	> 5000 nM	–
COc1cc(C2(NC(=O)c3cc(OCC4CCN4C)ccc3C)CC2)c2ccc(F)cc2n1 (stereo not drawn) [Compound 467, N-(1-(7-Fluoro-2-methoxyquinolin-4-yl)cyclopropyl)-2-methyl-5-((1-methylazetidin-2-yl)methoxy)benzamide]	< 100 nM	–
CCc1cc(C2(NC(=O)c3cc(OC[C@@H]4CCN4)ccc3C)CC2)c2cccnc2c1 [Compound 677, (S)-5-(Azetidin-2-ylmethoxy)-N-(1-(7-ethylquinolin-5-yl)cyclopropyl)-2-methylbenzamide]	–	IC50 [2]: < 100 nM
Cc1cc2ccn(C3CCC3)c2cc1C(=O)NC1(c2cccc3ccccc23)CC1 [Compound 296, 1-Cyclobutyl-5-methyl-N-(1-(naphthalen-1-yl)cyclopropyl)-1H-indole-6-carboxamide]	100 to 1000 nM	–
Cc1cc(-c2cc(C3(NC(=O)c4cc(OC[C@@H]5CCN5)ccc4C)CC3)c3cccnc3c2)n[nH]1 [Compound 635, (S)-5-(Azetidin-2-ylmethoxy)-2-methyl-N-(1-(7-(5-methyl-1H-pyrazol-3-yl)quinolin-5-yl)cyclopropyl)benzamide]	–	IC50 [2]: < 100 nM
Cc1ccc(NC2CNC2)cc1C(=O)NC1(c2cccc(-c3ccc(CN4CCCC4)s3)c2)CC1 [Compound 186, 5-(Azetidin-3-ylamino)-2-methyl-N-(1-(3-(5-(pyrrolidin-1-ylmethyl)thiophen-2-yl)phenyl)cyclopropyl)benzamide]	100 to 1000 nM	–
Cc1ccc(OCCNCC(F)(F)F)cc1C(=O)NC1(c2cccc3ccccc23)CC1 [Compound 247, 2-Methyl-N-(1-(naphthalen-1-yl)cyclopropyl)-5-(2-((2,2,2-trifluoroethyl)amino)ethoxy)benzamide]	100 to 1000 nM	–
CC(=O)c1ccc(C)c(C(=O)N[C@H](C)c2cccc3ccccc23)c1 [Compound 155, (R)-5-Acetyl-2-methyl-N-(1-(naphthalen-1-yl)ethyl)benzamide]	–	IC50 (PLpro 6.25 nM, substrate 25 μM, 60 min at 25° C., for more potent compounds PLpro 1 nM, 120 min): > 5000 nM
Cc1ccc(OCCN2CCCCC2)cc1C(=O)NC1(c2cccc3ccccc23)CC1 [Compound 254, 2-Methyl-N-(1-(naphthalen-1-yl)cyclopropyl)-5-(2-(piperidin-1-yl)ethoxy)benzamide]	< 100 nM	–
Cc1cc2ccc(=O)[nH]c2cc1C(=O)N[C@H](C)c1cccc2ccccc12 [Compound 167, (R)-6-Methyl-N-(1-(naphthalen-1-yl)ethyl)-2-oxo-1,2-dihydroquinoline-7-carboxamide]	> 5000 nM	–
CC(c1cccc2cnccc12)N1CCC(C(=O)NCc2cccc(F)c2)CC1 (stereo not drawn) [Compound 522, N-(3-Fluorobenzyl)-1-(1-(isoquinolin-5-yl)ethyl)piperidine-4-carboxamide]	> 5000 nM	–
Cc1cc2cc(CN(C)C)n(CO)c2cc1C(=O)N[C@H](C)c1cccc2ccccc12 [Compound 192, (R)-2-((Dimethylamino)methyl)-1-(hydroxymethyl)-5-methyl-N-(1-(naphthalen-1-yl)ethyl)-1H-indole-6-carboxamide]	100 to 1000 nM	–
Cc1ccc(OC[C@@H]2CCN2C)cc1C(=O)NC1(c2cc(C3=CCCCC3)cc3ncccc23)CC1 [Compound 663, (S)—N-(1-(7-(Cyclohex-1-en-1-yl)quinolin-5-yl)cyclopropyl)-2-methyl-5-((1-methylazetidin-2-yl)methoxy)benzamide]	–	IC50 [2]: < 100 nM
Cc1cc2c3c([nH]c2cc1C(=O)NC1(c2cccc4ccccc24)CC1)C(=O)CC3 [Compound 334, 7-Methyl-N-(1-(naphthalen-1-yl)cyclopropyl)-3-oxo-1,2,3,4-tetrahydrocyclopenta[b]indole-6-carboxamide]	1000 to 5000 nM	–
